BigSolDB 2.1

CC(=O)N1CCC[C@H]1C(=O)O
solubility (mole fraction)
Conditions	283.15 K	288.15 K	293.15 K	298.15 K	303.15 K	313.15 K	323.15 K
in 1,4-dioxane	–	0.0237	0.0291	–	0.0416	0.0673	0.13
in 2-butanone	0.0113	–	0.0161	–	0.0237	0.0339	0.0553
in acetone	0.0158	–	0.0247	–	0.0348	0.0484	0.0673
in acetonitrile	0.0159	–	0.0335	–	0.0558	0.131	0.255
in dichloromethane	0.0336	0.0448	0.0609	0.0785	0.0974	–	–
in ethanol	0.0754	–	0.111	–	0.156	0.219	0.278
in ethyl acetate	0.00368	–	0.00634	–	0.0096	0.0133	0.0201
in isobutanol	0.0448	–	0.0643	–	0.106	0.146	0.2
in isopropanol	0.0448	–	0.0732	–	0.099	0.143	0.177
in methanol	0.122	–	0.166	–	0.21	0.291	0.406
in methyl acetate	0.00602	–	0.00997	–	0.0147	0.0213	0.0322
in n-butanol	0.0412	–	0.059	–	0.0877	0.133	0.199
in n-pentanol	0.0377	–	0.0532	–	0.075	0.111	0.158
in n-propanol	0.0961	–	0.14	–	0.195	0.267	0.334
in sec-butanol	0.0429	–	0.062	–	0.0915	0.132	0.189
in water	0.0127	–	0.0188	–	0.0269	0.042	0.0738
